Measured values from ChEMBL document CHEMBL1148015, “Chipping at large, potent human T-cell leukemia virus type 1 protease inhibitors to uncover smaller, equipotent inhibitors” (Bioorg Med Chem Lett, 2007).
*1 amine or outer side, *2 acyl side, *3 side chain or, on linkers, in order; H or OH if unused. Where a SMILES comes first, the peptide text is derived from it. [ ]: non-standard residue; d: D form. The star is where a group is joined. X1 = O=C([C@@H](O)[C@H](Cc1ccccc1)N[*:1])[*:2]; Thz(5,5-Me2) = CC1(C)SCN[C@@H]1C(=O)O; X2 = N[C@@H](Cc1ccccc1)[C@H](O)C(=O)*

Columns and labels:
[1] = test system: Human immunodeficiency virus 1; test: Inhibition of recombinant HIV1 protease at 50 nM
[2] = test system: Human T-cell leukemia virus type I; test: Inhibition of human recombinant HTLV1 protease at 100 uM

Compound | inhibition [1] [%] | inhibition [2] [%]
CSCC[C@H](NC(=O)[C@@H](NC(=O)[C@@H]1CCCN1C(=O)[C@@H](O)[C@H](Cc1ccccc1)NC(=O)[C@H](NC(=O)[C@@H](CCC(N)=O)NC(C)=O)C(C)C)C(C)C)C(=O)N[C@@H](Cc1c[nH]cn1)C(=O)O | < 30 | 49
CC[C@H](C)[C@H](NC(C)=O)C(=O)N[C@H](C(=O)N[C@@H](Cc1ccccc1)[C@H](O)C(=O)N1CSC(C)(C)[C@H]1C(=O)N[C@H](C(=O)N[C@@H](CCSC)C(N)=O)[C@@H](C)CC)[C@@H](C)CC (Ac-II[X1][Thz(5,5-Me2)]IM-NH2) | 98 | 94
CC[C@H](C)[C@H](NC(C)=O)C(=O)N[C@H](C(=O)N[C@@H](Cc1ccccc1)[C@H](O)C(=O)N1CSC(C)(C)[C@H]1C(=O)N[C@H](C(=O)N[C@@H](Cc1ccccc1)C(N)=O)C(C)C)C(C)C (Ac-IV[X1][Thz(5,5-Me2)]VF-NH2) | 98 | 84
CC[C@H](C)[C@H](NC(=O)[C@@H](NC(=O)[C@H]1N(C(=O)[C@@H](O)[C@H](Cc2ccccc2)NC(=O)[C@@H](NC(=O)[C@@H](NC(C)=O)[C@@H](C)CC)C(C)C)CSC1(C)C)C(C)C)C(N)=O (Ac-IV[X1][Thz(5,5-Me2)]VI-NH2) | 97 | 78
CC[C@H](C)[C@H](NC(C)=O)C(=O)N[C@H](C(=O)N[C@@H](Cc1ccccc1)[C@H](O)C(=O)N1CSC(C)(C)[C@H]1C(=O)N[C@H](C(=O)N[C@@H](CC(C)C)C(N)=O)C(C)C)C(C)C (Ac-IV[X1][Thz(5,5-Me2)]VL-NH2) | 95 | 54
CC[C@H](C)[C@H](NC(C)=O)C(=O)N[C@H](C(=O)N[C@@H](Cc1ccccc1)[C@H](O)C(=O)N1CSC(C)(C)[C@H]1C(=O)N[C@H](C(=O)N[C@@H](CCSC)C(N)=O)C(C)C)C(C)C (Ac-IV[X1][Thz(5,5-Me2)]VM-NH2) | 98 | 87
CC[C@H](C)[C@H](NC(C)=O)C(=O)N[C@H](C(=O)N[C@@H](Cc1ccccc1)[C@H](O)C(=O)N1CSC(C)(C)[C@H]1C(=O)N[C@H](C(=O)N[C@@H](CCC(N)=O)C(N)=O)C(C)C)C(C)C (Ac-IV[X1][Thz(5,5-Me2)]VQ-NH2) | 95 | 86
CC[C@H](C)[C@H](NC(C)=O)C(=O)N[C@H](C(=O)N[C@@H](Cc1ccccc1)[C@H](O)C(=O)N1CSC(C)(C)[C@H]1C(=O)N[C@H](C(=O)N[C@H](C(N)=O)C(C)C)C(C)C)C(C)C (Ac-IV[X1][Thz(5,5-Me2)]VV-NH2) | 96 | 70
CSCC[C@H](NC(=O)[C@@H](NC(=O)[C@H]1N(C(=O)[C@@H](O)[C@H](Cc2ccccc2)NC(=O)[C@@H](NC(=O)[C@H](CC(C)C)NC(C)=O)C(C)C)CSC1(C)C)C(C)C)C(N)=O (Ac-LV[X1][Thz(5,5-Me2)]VM-NH2) | 99 | 83
CSCC[C@H](NC(=O)[C@@H](NC(=O)[C@H]1N(C(=O)[C@@H](O)[C@H](Cc2ccccc2)NC(=O)[C@H](CSC)NC(=O)[C@H](CCC(N)=O)NC(C)=O)CSC1(C)C)C(C)C)C(N)=O (Ac-QC(Me)[X1][Thz(5,5-Me2)]VM-NH2) | 96 | 51
CC[C@H](C)[C@H](NC(=O)[C@H](CCC(N)=O)NC(C)=O)C(=O)N[C@@H](Cc1ccccc1)[C@H](O)C(=O)N1CSC(C)(C)[C@H]1C(=O)N[C@H](C(=O)N[C@@H](CCSC)C(N)=O)C(C)C (Ac-QI[X1][Thz(5,5-Me2)]VM-NH2) | 95 | 85
CSCC[C@H](NC(=O)[C@@H](NC(=O)[C@H]1N(C(=O)[C@@H](O)[C@H](Cc2ccccc2)NC(=O)[C@H](CC(C)C)NC(=O)[C@H](CCC(N)=O)NC(C)=O)CSC1(C)C)C(C)C)C(N)=O (Ac-QL[X1][Thz(5,5-Me2)]VM-NH2) | 83 | 54
CC[C@H](C)[C@H](NC(=O)[C@H]1N(C(=O)[C@@H](O)[C@H](Cc2ccccc2)NC(=O)[C@@H](NC(=O)[C@H](CCC(N)=O)NC(C)=O)C(C)C)CSC1(C)C)C(=O)N[C@@H](CCSC)C(N)=O (Ac-QV[X1][Thz(5,5-Me2)]IM-NH2) | 95 | 74
CSCC[C@H](NC(=O)[C@@H](NC(=O)[C@H]1N(C(=O)[C@@H](O)[C@H](Cc2ccccc2)NC(=O)[C@@H](NC(=O)[C@H](CCC(N)=O)NC(C)=O)C(C)C)CSC1(C)C)[C@@H](C)O)C(N)=O (Ac-QV[X1][Thz(5,5-Me2)]TM-NH2) | 78 | < 30
CSCC[C@H](NC(=O)[C@@H](NC(=O)[C@H]1N(C(=O)[C@@H](O)[C@H](Cc2ccccc2)NC(=O)[C@@H](NC(=O)[C@@H](NC(C)=O)C(C)C)C(C)C)CSC1(C)C)C(C)C)C(N)=O (Ac-VV[X1][Thz(5,5-Me2)]VM-NH2) | 95 | 77
CC(C)[C@H](NC(=O)[C@H](CCC(N)=O)NC(=O)[C@@H]1CCCN1)C(=O)N[C@@H](Cc1ccccc1)[C@H](O)C(=O)N1CCC[C@H]1C(N)=O (H-PQV[X1]P-NH2) | < 30 | < 30
CC(C)[C@H](NC(=O)[C@@H]1CCCN1C(=O)[C@@H](O)[C@H](Cc1ccccc1)NC(=O)[C@@H](NC(=O)[C@H](CCC(N)=O)NC(=O)[C@@H]1CCCN1)C(C)C)C(N)=O (H-PQV[X1]PV-NH2) | < 30 | < 30
CSCC[C@H](NC(=O)[C@@H](NC(=O)[C@@H]1CCCN1C(=O)[C@@H](O)[C@H](Cc1ccccc1)NC(=O)[C@@H](NC(=O)[C@H](CCC(N)=O)NC(=O)[C@@H]1CCCN1)C(C)C)C(C)C)C(N)=O (H-PQV[X1]PVM-NH2) | < 30 | 86
CSCC[C@H](NC(=O)[C@@H](NC(=O)[C@@H]1CCCN1C(=O)[C@@H](O)[C@H](Cc1ccccc1)NC(=O)[C@@H](NC(=O)[C@H](CCC(N)=O)NC(=O)[C@@H]1CCCN1)C(C)C)C(C)C)C(=O)N[C@@H](Cc1cnc[nH]1)C(=O)O (H-PQV[X1]PVMH-OH) | < 30 | 94
CSCC[C@H](NC(=O)[C@@H](NC(=O)[C@@H]1CCCN1C(=O)[C@@H](O)[C@H](Cc1ccccc1)NC(=O)[C@@H](N)C(C)C)C(C)C)C(=O)N[C@@H](Cc1c[nH]cn1)C(=O)O (H-V[X1]PVMH-OH) | < 30 | < 30

More lines, now with the values ahead:

inhibition [1] [%] | inhibition [2] [%] | Compound
92 | < 30 | CSCC[C@H](NC(=O)[C@@H](CSC)NC(=O)[C@H]1N(C(=O)[C@@H](O)[C@H](Cc2ccccc2)NC(=O)[C@@H](NC(=O)[C@H](CCC(N)=O)NC(C)=O)C(C)C)CSC1(C)C)C(N)=O
< 30 | < 30 | CSCC[C@H](NC(=O)[C@@H](NC(=O)[C@@H]1CCCN1C(=O)[C@@H](O)[C@H](Cc1ccccc1)NC(=O)[C@H](NC(=O)[C@H](N)CCC(N)=O)C(C)C)C(C)C)C(=O)N[C@@H](Cc1c[nH]cn1)C(=O)O
96 | 56 | CSCC[C@H](NC(=O)[C@@H](NC(=O)[C@H]1N(C(=O)[C@@H](O)[C@H](Cc2ccccc2)NC(=O)[C@@H](NC(=O)[C@H](C)NC(C)=O)C(C)C)CSC1(C)C)C(C)C)C(N)=O (Ac-AV[X1][Thz(5,5-Me2)]VM-NH2)
95 | 74 | CSCC[C@H](NC(=O)[C@@H](NC(=O)[C@H]1N(C(=O)[C@@H](O)[C@H](Cc2ccccc2)NC(=O)[C@@H](NC(=O)[C@H](Cc2ccccc2)NC(C)=O)C(C)C)CSC1(C)C)C(C)C)C(N)=O (Ac-FV[X1][Thz(5,5-Me2)]VM-NH2)
84 | 30 | CSCC[C@H](NC(=O)[C@H](CC(C)C)NC(=O)[C@H]1N(C(=O)[C@@H](O)[C@H](Cc2ccccc2)NC(=O)[C@@H](NC(=O)[C@H](CCC(N)=O)NC(C)=O)C(C)C)CSC1(C)C)C(N)=O (Ac-QV[X1][Thz(5,5-Me2)]LM-NH2)
96 | 66 | CSCC[C@H](NC(=O)[C@@H](NC(=O)[C@H]1N(C(=O)[C@@H](O)[C@H](Cc2ccccc2)NC(=O)[C@@H](NC(=O)[C@H](CCC(N)=O)NC(C)=O)C(C)C)CSC1(C)C)C(C)C)C(N)=O (Ac-QV[X1][Thz(5,5-Me2)]VM-NH2)
< 30 | < 30 | CSCC[C@H](NC(=O)[C@@H](NC(=O)[C@@H]1CCCN1C(=O)[C@@H](O)[C@H](Cc1ccccc1)NC(=O)[C@@H](NC(C)=O)C(C)C)C(C)C)C(=O)N[C@@H](Cc1c[nH]cn1)C(=O)O (Ac-V[X1]PVMH-OH)
< 30 | < 30 | CSCC[C@H](NC(=O)[C@@H](NC(=O)[C@@H]1CCCN1C(=O)[C@@H](O)[C@H](Cc1ccccc1)NC(C)=O)C(C)C)C(=O)N[C@@H](Cc1c[nH]cn1)C(=O)O (Ac-[X1]PVMH-OH)
58 | > 99 | CSCC[C@H](NC(=O)[C@@H](NC(=O)[C@H]1N(C(=O)[C@@H](O)[C@H](Cc2ccccc2)NC(=O)[C@@H](NC(=O)[C@H](CCC(N)=O)NC(=O)[C@@H]2CCCN2)C(C)C)CSC1(C)C)C(C)C)C(=O)N[C@@H](Cc1c[nH]cn1)C(=O)O (H-PQV[X1][Thz(5,5-Me2)]VMH-OH)
< 30 | < 30 | CSCC[C@H](NC(=O)[C@@H](NC(=O)[C@@H]1CCCN1C(=O)[C@@H](O)[C@@H](N)Cc1ccccc1)C(C)C)C(=O)N[C@@H](Cc1c[nH]cn1)C(=O)O (X2-PVMH-OH)
